Earlier results, collected in patent US20190160058A1, “METHODS OF TREATMENT WITH SELECTIVE CB2 RECEPTOR AGONISTS” (Arena Pharmaceuticals, Inc., priority 2016, published 2019).

Key:
[1] = tested on: EAE mouse model; details: in vivo; cited from earlier work
[2] = tested on: bone marrow-derived osteoblasts/stromal cells; details: in vitro; cited from earlier work
[3] = tested on: ovariectomy-induced bone loss; details: in vivo; cited from earlier work
[4] = tested on: guinea pig vagus nerve preparations; details: in vitro; cited from earlier work
[5] = tested on: human vagus nerve preparations; details: in vitro; cited from earlier work
[6] = tested on: conscious guinea-pigs; details: given prior to exposure to citric acid; cited from earlier work
[7] = tested on: RPE cells; details: cited from earlier work
[8] = tested on: LPS-induced bladder inflammation; details: in vivo; cited from earlier work
[9] = tested on: bovine nasal cartilage explants; details: in vitro; cited from earlier work
[10] = tested on: mice; details: cited from earlier work
[11] = tested on: guinea pigs; details: cited from earlier work

## CCCCCCC(C)(C)c1cc(OC)c([C@@H]2C=C(CO)[C@@H]3C[C@H]2C3(C)C)c(OC)c1 [HU-308]
[1]
  cell recruitment, proliferation and axonal loss: markedly reduces the recruitment of immature myeloid cells and T cells, microglial and infiltrating myeloid cell proliferation, and axonal loss
[2]
  osteoblast numbers and activity, osteoclast precursor proliferation: enhances endocortical osteoblast numbers and activity while simultaneously inhibiting proliferation of osteoclast precursors
[3]
  bone loss and cortical thickness: attenuates ovariectomy-induced bone loss and stimulates cortical thickness

## CCCC(C)(C)c1ccc2c(c1)OC(C)(C)[C@@H]1CC=C(C)C[C@@H]21 [JWH133]
[4]
  capsaicin-, PGE2-, and hypertonic saline-induced depolarization: reduces capsaicin-, PGE2-, and hypertonic saline-induced depolarization
[5]
  capsaicin-, PGE2-, and hypertonic saline-induced depolarization: reduces capsaicin-, PGE2-, and hypertonic saline-induced depolarization
[6]
  cough: significantly reduces cough

## CCCn1c(C)c(C(=O)c2cccc3ccccc23)c2ccccc21 [JWHO15]
[7]
  protection from oxidative damage: provides comparable protection
[8]
  LPS-induced bladder inflammation: antagonize LPS-induced bladder inflammation

## Cc1c(C(=O)c2cccc3ccccc23)c2cccc3c2n1[C@H](CN1CCOCC1)CO3 [WIN 55212-2]
[1]
  leukocyte rolling and adhesion in the brain: significantly inhibits leukocyte rolling and adhesion in the brain
[9]
  IL-1alpha-stimulated proteoglycan and collagen degradation: significantly inhibit
[10]
  number of capsaicin-induced coughs: dose-dependent inhibition

## CCCCC/C=C\C/C=C\C/C=C\C/C=C\CCCC(=O)NCCO [anandamide]
[11]
  number of capsaicin-induced coughs: dose-dependent inhibition
